Experimental data as given in PubChem BioAssay (NCI).
Several values for one entry are separate records, joined by “and”; a condition that tells them apart may be missing. Equal entries are not always repeated.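 In this assay, cells in 96-well plates receive the compound at five concentrations for 48 hours. Endpoints are linearly interpolated between the surrounding concentrations. At the GI50, growth is halved. At the TGI there is no net growth.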

Columns and labels:
Assay in all cases: growth of human tumour cells (NCI), 48 h
SNB-19 CNS = tested on: SNB-19 CNS
MDA-MB-231 breast = tested on: MDA-MB-231 breast
SK-MEL-5 melanoma = tested on: SK-MEL-5 melanoma
786-0 renal = tested on: 786-0 renal
MALME-3M melanoma = tested on: MALME-3M melanoma
T-47D breast = tested on: T-47D breast
HOP-92 NSCLC = tested on: HOP-92 NSCLC
SN12C renal = tested on: SN12C renal
UO-31 renal = tested on: UO-31 renal
LOX IMVI melanoma = tested on: LOX IMVI melanoma

Row | SMILES | GI50 (SNB-19 CNS) | TGI (SNB-19 CNS) | GI50 (MDA-MB-231 breast) [µM] | TGI (MDA-MB-231 breast) [µM] | GI50 (SK-MEL-5 melanoma) | TGI (SK-MEL-5 melanoma) | GI50 (786-0 renal) | TGI (786-0 renal) | GI50 (MALME-3M melanoma) | TGI (MALME-3M melanoma) | GI50 (T-47D breast) [µM] | TGI (T-47D breast) [µM] | GI50 (HOP-92 NSCLC) | TGI (HOP-92 NSCLC) | GI50 (SN12C renal) | TGI (SN12C renal) | GI50 (UO-31 renal) | TGI (UO-31 renal) | GI50 (LOX IMVI melanoma) | TGI (LOX IMVI melanoma)
1 | CCCN(CCC)C(=O)[C@H](CC)[C@@H]1CC[C@@H](C)[C@@H]([C@H](C)[C@@H](O)[C@@H](C)C(=O)[C@H](CC)C2O[C@]3(C=C[C@@H](O)[C@]4(CC[C@@](C)([C@H]5CC[C@](O)(CC)[C@H](C)O5)O4)O3)[C@H](C)C[C@@H]2C)O1 (some centres undefined) | 3.36 µM | 59.2 µM | 1.62 | 3.28 | 1.73 µM | 3.16 µM | 2.79 µM | 9 µM | 1.72 µM | 3.71 µM | 3.08 | 14.5 | 1.29 µM | 4.24 µM | 2.13 µM | 6.1 µM | 2.12 µM | 7.03 µM | 1.5 µM | 3 µM
2 | COc1cccc2c(=O)c3c(sc12)c(NCCN(C)C)nc1ccccc13 | – | – | 1.34 | 2.87 | 1.71 µM | 3.17 µM | 1.65 µM | 3.16 µM | 1.83 µM | 3.59 µM | 1.65 | 3.98 | 1.03 µM | 3.53 µM | 1.15 µM | 2.58 µM | 0.461 µM | 2 µM | 1.33 µM | 2.76 µM
3 | Clc1ccc2c(c1)-c1ccccc1C1=NCCN12 | 2.5 µM | 9.32 µM | 2.69 | 12.4 | 1.56 µM | 2.94 µM | 1.66 µM | 3.52 µM | 1.77 µM | 4.17 µM | 2.73 | 8.27 | 1.19 µM | 3.29 µM | 2.41 µM | 12.6 µM | 1.28 µM | 2.8 µM | 1.59 µM | 3.65 µM
4 | COc1ccc(/C=C/C(=O)c2cc3c(N)c(C(=O)Nc4ccccc4)sc3nc2C)cc1 | 0.269 µM | > 50 µM | 0.377 | > 31.8 | 0.136 µM | 0.862 µM | 0.276 µM | > 16 µM | 1.7 µM | > 50 µM | 0.33 | > 50 | 1.17 µM | 14 µM | 0.311 µM | > 21 µM | 0.688 µM | 20.1 µM | 0.332 µM | 2.77 µM
5 | CS(=O)(=O)Nc1cc(-c2ccc3ncnc(Nc4ccc5c(cnn5Cc5ccccc5F)c4)c3c2)cnc1Cl | 1.77 µM | > 55.5 µM | 1.51 | > 100 | 1.76 µM | 3.28 µM | 1.84 µM | > 100 µM | 0.466 µM | 3 µM | 0.367 | 3.14 | 0.131 µM | – | 1.13 µM | > 100 µM | 3.23 µM | > 100 µM | 1.69 µM | 4.71 µM
6 | Clc1nc(Cl)c(Cc2ccccc2)c(Cl)n1 | – | 33.3 µM | – | 14.9 | – | 8.39 µM | – | 10.4 µM | – | 63.2 µM | – | 42.4 | – | – | – | 32 µM | – | 33.2 µM | – | > 100 µM
7 | CNc1nc(N(C)C)nc(N(C)C)n1 | > 100 µM and 1210 µM | > 100 µM and 3780 µM | – | 2640 | > 100 µM and 1130 µM | > 100 µM and 2840 µM | > 100 µM and 2790 µM | > 100 µM and 4840 µM | > 100 µM and 1160 µM | > 100 µM and 2110 µM | – | 3720 | > 100 µM and 277 µM | > 100 µM and 809 µM | > 100 µM and 2050 µM | > 100 µM and 3960 µM | > 100 µM and 828 µM | > 100 µM and 3250 µM | > 100 µM and 901 µM | > 100 µM and 5150 µM
8 | N#CC1=C(N)Oc2c(sc3c(F)cccc23)C1c1ccc(F)cc1 (centres undefined) | 0.585 µM | 15 µM | 1.44 | 11.5 | 0.657 µM | 14.3 µM | 0.746 µM | 11.7 µM | 0.602 µM | 22.2 µM | 0.61 | 26.9 | 2.36 µM | 13.4 µM | 1.28 µM | 15.8 µM | 1.27 µM | 12.1 µM | 0.727 µM | 12.2 µM
9 | CC1/C(=N/Nc2ccc([N+](=O)[O-])cc2)CC2C3(C)CCC2(C(C)C(=O)O)C(=O)C13 (centres undefined) | > 100 µM | > 100 µM | 4.06 | > 100 | 11.4 µM | > 100 µM | 11.3 µM | > 100 µM | > 100 µM | > 100 µM | 4.14 | > 100 | 23.6 µM | > 100 µM | 60.9 µM | > 100 µM | 4.31 µM | > 100 µM | 75.3 µM | > 100 µM
